Assay results as given in paper PMC10681895, “Dasatinib anhydrate containing oral formulation improves variability and bioavailability in humans” (Leukemia, 2023).
Read-outs that look alike come from different tables or passages of the source. Values belong to the compound of their own block, whether it stands above or below them.

Assays:
[1] = Intrinsic dissolution rate, rotation disk (Sirius inForm), acetate/phosphate buffer pH 4.5; settings: for intrinsic dissolution rate: acetate buffer pH 4.5, 37 °C, 100 rpm
[2] = Drug-drug interaction study with omeprazole (staggered approach), pharmacokinetics; settings: human, plasma, oral
Procedure: The DDI study was a single-sequence, 2-period, open-label study to investigate the effects of an oral proton pump inhibitor (PPI) omeprazole (Helicid 40 mg capsules, Zentiva, k.s., Czech Republic) administered QD for 5 days on the pharmacokinetics (PK) of T when ingested 2 h prior to the last omeprazole dose (‘staggered approach’). All subjects received T alone in the first period and T under pre-treatment with omeprazole in the second period.
Subjects fasted for at least 10 h prior to dosing and no food was provided until 4 h after the dose, after which a standardized breakfast was served. […]
The plasma concentration-time profiles and pharmacokinetic parameters determined for dasatinib included maximum plasma concentration (Cmax), time to reach the maximum plasma concentration (Tmax), area under the plasma concentration-time curve from time zero to the time of the last quantifiable concentration (AUC0-t, measured by linear trapezoid method), AUC from time zero to infinity (AUC0-inf), terminal elimination half-life (thalf). The pharmacokinetic parameters were determined by non-compartmental methods using Phoenix WinNonlin, version 8.1 (Certara, USA).
Arithmetic mean and standard deviation were summarized for the main pharmacokinetic parameters. For Tmax, median and range were determined. […]

[3] = Bioavailability of anhydrous vs monohydrate form of dasatinib by gastric pH (data on file); assay type: in vivo, human
[4] = parameters: method as in PMID 19395585; settings: cited from earlier work
[5] = Safety and tolerability, drug-drug interaction study (adverse events, CTC grade); assay type: in vivo, human; settings: after dasatinib alone
Procedure: Safety was evaluated through assessment of adverse events, clinical and laboratory test results, physical examination, and concomitant medication usage.

[6] = cited from earlier work
[7] = test system: non-small-cell lung carcinoma; parameters: method as in PMID 25246385; settings: cited from earlier work
[8] = parameters: method as in PMID 15032311, PMID 15568890; settings: oral; cited from earlier work
[9] = without PPI or H2-receptor antagonists

- fold higher intrinsic dissolution rate compared to monohydrate form ([1]; acetate buffer pH 4.5): more than 80 fold
- intrinsic dissolution rate ([1]; listed as Anhydrous polymorph of dasatinib): 1606 mcg/min/cm^2
- fold difference in aqueous solubility compared with monohydrate form ([1]; pH of 4.5): > 80 fold
- Tmax [2]: 1.25 h
- Tmax ([2]; 110.6 mg): 0.83 h
- increase of bioavailability compared with monohydrate form ([3]; normogastric population): approximately 20%
- fold higher bioavailability compared with monohydrate form ([3]; subjects with gastric pH >4 (data on file)): about 3.5 fold
Structure (SMILES): Cc1nc(Nc2ncc(C(=O)Nc3c(C)cccc3Cl)s2)cc(N2CCN(CCO)CC2)n1 [dasatinib anhydrate, dasatinib]

- intrinsic dissolution rate ([1]; listed as monohydrate form): 19 mcg/min/cm^2
Structure (SMILES): Cc1nc(Nc2ncc(C(=O)Nc3c(C)cccc3Cl)s2)cc(N2CCN(CCO)CC2)n1 [dasatinib monohydrate, dasatinib]
- solubility ([4]; pH 2.6): 18.4 mg/mL
- solubility ([4]; pH 4.28): 0.205 mg/mL
- solubility ([4]; pH 6.99): < 0.001 mg/mL

Structure (SMILES): Cc1nc(Nc2ncc(C(=O)Nc3c(C)cccc3Cl)s2)cc(N2CCN(CCO)CC2)n1 [dasatinib]
- Chills, number of adverse effects ([5]; CTC Grade 1): 1
- Fever, number of adverse effects ([5]; CTC Grade 1): 0
- Headache, number of adverse effects ([5]; CTC Grade 1): 1
- Nausea, number of adverse effects ([5]; CTC Grade 1): 3
- Neck exanthema, number of adverse effects ([5]; CTC Grade 1): 0
- Palmar exanthema, number of adverse effects ([5]; CTC Grade 1): 0
- Vomiting, number of adverse effects ([5]; CTC Grade 1): 1
- Weakness, number of adverse effects ([5]; CTC Grade 1): 2
- Chills, number of adverse effects ([5]; CTC Grade 2): 0
- Fever, number of adverse effects ([5]; CTC Grade 2): 1
- Headache, number of adverse effects ([5]; CTC Grade 2): 6
- Nausea, number of adverse effects ([5]; CTC Grade 2): 1
- Neck exanthema, number of adverse effects ([5]; CTC Grade 2): 1
- Palmar exanthema, number of adverse effects ([5]; CTC Grade 2): 1
- Vomiting, number of adverse effects ([5]; CTC Grade 2): 0
- Weakness, number of adverse effects ([5]; CTC Grade 2): 0
- decrease of AUC ([6]; co-administration of dexamethasone, according to the label): approximately 25%
- AUC decrease ([6]; co-administration with antacids): ~ 55%
- prevention of dasatinib AUC decrease induced by rabeprazole ([6]; co-administration with betaine hydrochloride): 78%
- AUC decrease ([6]; co-administration with famotidine): ~ 60%
- reduction in dasatinib bioavailability ([6]; dasatinib administered 22 h after the last dose of the PPI): > 40%

Structure (SMILES): C#Cc1cccc(Nc2ncnc3cc(OCCOC)c(OCCOC)cc23)c1 [erlotinib]
- median progression free survival ([7]; with co-administration of PPI or H2-receptor antagonists, p < 0.001): 1.4 months
- median overall survival ([7]; with co-administration of PPI or H2-receptor antagonists, p = 0.003): 12.9 months
- median overall survival [7, 9]: 16.8 months
- median progression free survival [7, 9]: 2.3 months

Structure (SMILES): O=C1NC(=O)C(c2ccccc2)(c2ccccc2)N1 [phenytoin]
- absolute bioavailability [8]: > 90%
